According to patent publication US20070141171A1, “NOVEL COMPOSITION AND METHOD FOR THE TREATMENT OF HYPERTENSION” (priority 2003, published 2007):

Key:
Format in all cases: cell-based
[1] = test system: cultured human aortic smooth muscle cells (SMC); assay: SMC collagen gel contraction stimulated by angiotensin II; details: for effect on ATII-induced gel: 1-4 mM, individual or comb; for GA, % vs 100% control / increase in gel area (GA) vs ATII: 30 mcM; for GA, % vs 100% control: ATII alone 76%; for rank of effectiveness on ATII (polyphenols) / rank of effectiveness on ATII-induced gel contraction (catechins): at 30; for activity as inhibitor of Ang II-stimulated gel contraction: summary statement
Experimental: Plant-derived bioflavonoids have been recognized to support arterial wall structural integrity and interfere with a variety of pro-atherosclerotic stimuli. We tested whether bioflavonoids have an effect on the contractile activity of cultured human aortic smooth muscle cells (SMC) embedded in a three-dimensional type I collagen (1 mg/mL) matrix. […]
The following starting material and equipment were used. • 1. Cultured vascular smooth muscle cells (SMC) isolated from human aorta.
Cells are used from 4th to 8th passages. • 2. Human collagen type I. • 3. Angiotensin II. • 4. Epican Forte (composition shown in Table 1, available from Matthias Rath, Inc., and all ingredients commercially available) • 5. Epigallocatechin gallate (EGCG) • 6. Quercetin (chemical structure is well defined) • 7. Cell culture medium (DMEM) • 8. 24 well plastic cell culture plate pre-incubated with 2 mg/ml bovine serum albumin. • 9. Digital camera • 10. Digital image analyzing software (Scion Corporation). • 11. Zymography gel electrophoresis assay (Novorex Corp).
Confluent culture of SMC and suspended from culture flask by trypsinization and washed with phosphate-buffered saline (PBS) from serum-containing medium. Cell concentration in suspension was brought to 500,000 cell per mL in serum-free DMEM. Cell suspension was then mixed 1:1 with ice-cold 2 mg/ml collagen type I solution in PBS. Final concentration of collagen was 1 mg/mL, final cell concentration is 250,000 per mL. Collagen-SMC suspension was distributed by 300 microL to the wells of 24 well plate in such a manner to cover the entire bottom surface of the well. The plate was then incubated for one hour at 37° C. to allow gel to polymerize. 0.5 mL of experimental serum-free medium containing no additions (control), […] was added to polymerized gel, plate was then gently tapped on the side to detach gel from the bottom of plastic well, and plate was then placed to incubator with the controlled atmosphere containing 5%CO2 at 37° C. for incubation. After 24 hour incubation plate was taken from the incubator and plate image with floating gels was taken using digital camera. Gel flat surface area is measured with digital image analyzing software. Sample of cell culture media was taken for analysis of matrix metalloproteinases activity by zymography (Novorex Corp). Experiments were performed in triplicates and results are presented as a mean +/−SD.

[2] = test system: cultured human aortic smooth muscle cells (SMC); assay: SMC collagen gel contraction stimulated by Thrombin; details: for GA, % vs 100% control: 30 mcM, Thrombin alone 70%
[3] = test system: cultured human aortic smooth muscle cells (SMC); assay: SMC collagen gel contraction stimulated by Angiotensin I; details: Mar. 25, 2003; ATI 330-1000 nM alone
[4] = Mar. 25, 2003, in combination with EF

`[Ca+2]` [Ca] was tested. Which “effect on ATII-induced gel” value ([1]; Mar. 20, 2003) did it give?
Its value is “no effects”.

How did the “effect on ATII GA reduction” value ([1]; Mar. 28, 2003, 0.25-1 mM) turn out when `O=C(O)[C@@H]1CCCN1` [Proline] was run?
Its value is “did not effect”.

Which “GA, % vs 100% control” value ([1]; Apr. 2, 2003) does the source give for `Oc1ccc(C=Cc2cc(O)cc(O)c2)cc1` [Resveratrol] here?
Its value is 88%.

And the “rank of effectiveness on ATII (polyphenols)” value (from here on “rank … (polyphenols)”) ([1]; Apr. 17, 2003)?
Its value is “Querc30=>Genist30=>Resver30=>Rutin30”.

What about the “effect on gel area vs ATII” value ([1]; Mar. 25, 2003, 15 mcM, alone) of the same molecule?
The value was “no effect”.

And the “effect on EF effect” value ([1]; Mar. 25, 2003, 15 mcM, with EF)?
Its value is “no effect”.

And the “increase in gel area (GA) vs ATII” value ([1]; Mar. 25, 2003, alone)?
The value was 45%.

What about the “increase in gel area (GA) vs ATII” value [1, 4] of the same molecule?
The value was 104%.

What about the “GA, % vs 100% control” value ([2]; Apr. 2, 2003) of the same molecule?
The value was 106%.

Which “rank of effectiveness on ATII-induced gel contraction (catechins)” value (shortened to “rank of effectiveness … (catechins)”) ([1]; Apr. 17, 2003) does the source give for `O=C(O[C@@H]1Cc2c(O)cc(O)cc2O[C@@H]1c1ccc(O)c(O)c1)c1cc(O)c(O)c(O)c1` [ECG] here?
The value was “more effective than EC=C”.

`Oc1cc(O)c2c(c1)O[C@H](c1ccc(O)c(O)c1)[C@H](O)C2` [EC] was tested. Which “rank of effectiveness … (catechins)” value ([1]; Apr. 17, 2003) did it give?
Its value is “EC=C”.

How did the “effect on ATII-induced gel reduction” value ([1]; Mar. 20, 2003, Arginine 0.5-2 mM) turn out when `N=C(N)NCCC[C@H](N)C(=O)O` [Arginine] was run?
Its value is “no significant effect”.

How did the “GA returned to % of control” value ([1]; Mar. 26, 2003, NAC 2 mcM, ATII 1 mcM (21% reduction)) turn out when `CC(=O)N[C@@H](CS)C(=O)O` [NAC, N-Acetyl Cystein] was run?
The value was 100%.

What about the “effect on ATII GA reduction” value ([1]; Mar. 26, 2003, NAC higher concentration up to 60 mcM) of the same molecule?
Its value is “did not have any effect”.

For `Oc1cc(O)c2c(c1)OC(c1ccc(O)c(O)c1)C(O)C2` (stereo not drawn) [C], which “rank of effectiveness … (catechins)” value ([1]; Apr. 17, 2003) is on record?
The value was “EC=C”.

How did the “GA reduced by” value ([1]; Apr. 2, 2003, ATII alone at 1 mcM) turn out when “Angiotensin II (DRVYIHPF; Angiotensin-2; UniProt P01019 25-32, looked up) [ATII, stimulus of gel contraction, reference compound]” was run?
Its value is 24%.

And the “effect on gel contraction” value ([1]; Mar. 7, 2003, ATII 1 mcM alone)?
The value was “no effects”.

And the “gel reduction to % of Control 100%” value ([1]; Mar. 11, 2003, ATII 1 mcM alone)?
Its value is 59%.

And the “gel reduction to % of 100% control” value ([1]; Mar. 18, 2003, ATII 1 mcM alone)?
The value was 23%.

And the “gel reduction to % of 100% control” value ([1]; Mar. 20, 2003, ATII 1 mcM alone)?
The value was 81%.

And the reduction in gel ([1]; Mar. 25, 2003, ATII 110-330-1000 nM alone)?
The reduction in gel was “dose dependent reduction in gel”.

What about the GA reduction ([1]; Mar. 26, 2003, ATII 1 mcM alone) of the same molecule?
Its GA reduction is 21%.

How did the gel reduction [3] turn out when “Angiotensin I (DRVYIHPFHL; Angiotensin-1; UniProt P01019 25-34, looked up) [ATI, stimulus of gel contraction]” was run?
Its gel reduction is “gel reduction at 1000 nM only”.

What does the source list for `O=C(O[C@@H]1Cc2c(O)cc(O)cc2O[C@@H]1c1cc(O)c(O)c(O)c1)c1cc(O)c(O)c(O)c1` [EGCG, Epigallocatechin gallate]?
activity as inhibitor of Ang II-stimulated gel contraction ([1]; 1 micromol/L Ang II, 24 hours): most active inhibitors of gel contraction; inhibition of Ang II-induced gel contraction ([1]; 30 micromol/L, 1 micromol/L Ang II, 24 hours): 97%; GA, % vs 100% control ([1]; Apr. 2, 2003): 150%; effect on gel contraction by ATII ([1]; Apr. 17, 2003, EGCG 3.3-10-30 mcM): dose-dependently reduced gel contraction; rank of effectiveness on ATII-induced gel contraction (catechins) ([1]; Apr. 17, 2003): more effective than ECG30; gel reduction to % of 100% control ([1]; Mar. 18, 2003, ATII 1 mcM + EGCG 15 mcM): 30%; GA, % vs 100% control ([2]; Apr. 2, 2003): 206%

With `O=c1c(-c2ccc(O)cc2)coc2cc(O)cc(O)c12` [Genistein] as the molecule, how does the “GA, % vs 100% control” value ([1]; Apr. 2, 2003) read?
The value was 96%.

What about the “rank … (polyphenols)” value ([1]; Apr. 17, 2003) of the same molecule?
Its value is “Querc30=>Genist30=>Resver30=>Rutin30”.

What about the “increase in gel area (GA) vs ATII” value ([1]; Mar. 25, 2003, alone) of the same molecule?
The value was 34%.

What about the “increase in gel area (GA) vs ATII” value [1, 4] of the same molecule?
Its value is 11%.

And the “GA, % vs 100% control” value ([2]; Apr. 2, 2003)?
Its value is 78%.

`NCCCC[C@H](N)C(=O)O` [Lysine] was tested. Which “effect on ATII GA reduction” value ([1]; Mar. 28, 2003, 0.25-1 mM) did it give?
Its value is “did not effect”.

Thrombin [reference compound] was tested. Which “GA reduced by” value ([2]; Apr. 2, 2003, Thrombin alone at 1 mcM) did it give?
Its value is 30%.

What about the “effect on gel contraction” value ([2]; Mar. 7, 2003, Thrombin 0.1 U/mL alone) of the same molecule?
Its value is “no effects”.

What about the “gel reduced by” value ([2]; Mar. 10, 2003, Thrombin 0.1 U/mL alone, 9% in control) of the same molecule?
Its value is 58%.

With `C[C@@H]1O[C@@H](OC[C@H]2O[C@@H](Oc3c(-c4ccc(O)c(O)c4)oc4cc(O)cc(O)c4c3=O)[C@H](O)[C@@H](O)[C@@H]2O)[C@H](O)[C@H](O)[C@H]1O` [Rutin] as the molecule, how does the “GA, % vs 100% control” value ([1]; Apr. 2, 2003) read?
The value was 80%.

And the “GA, % vs 100% control” value ([2]; Apr. 2, 2003)?
Its value is 56%.

How did the “activity as inhibitor of Ang II-stimulated gel contraction” value ([1]; 1 micromol/L Ang II, 24 hours) turn out when `O=C1O[C@H]([C@@H](O)CO)C(O)=C1O` [AsA, ascorbic acid] was run?
Its value is “not significantly active”.

And the “effect on ATII GA reduction” value ([1]; Apr. 2, 2003, AsA 200 mcM)?
The value was “had no effect”.

What about the “effect on ATII-induced gel reduction” value ([1]; Apr. 17, 2003, AsA 500 mcM alone) of the same molecule?
Its value is “did not have effect”.

What about the “effect on ATII-induced gel reduction” value ([1]; Apr. 17, 2003, AsA 500 mcM in combination with 10 EGCG) of the same molecule?
Its value is “did not have effect”.

And the “gel reduction to % of 100% control” value ([1]; Mar. 18, 2003, ATII 1 mcM + AsA 100 mcM)?
The value was 30%.

What about the “gel reduction to % vs 100% ATII 1 mcM” value ([1]; Mar. 20, 2003, AsA 0.5 mM + ATII) of the same molecule?
Its value is 90%.

What about the “effect on Thrombin GA reduction” value ([2]; Apr. 2, 2003, AsA 200 mcM) of the same molecule?
The value was “had no effect”.

Which “activity as inhibitor of Ang II-stimulated gel contraction” value ([1]; 1 micromol/L Ang II, 24 hours) does the source give for `O=c1c(O)c(-c2ccc(O)c(O)c2)oc2cc(O)cc(O)c12` [Quercetin] here?
Its value is “most active inhibitors of gel contraction”.

What about the “GA, % vs 100% control” value ([1]; Apr. 2, 2003) of the same molecule?
Its value is 167%.

And the “rank … (polyphenols)” value ([1]; Apr. 17, 2003)?
Its value is “Querc30=>Genist30=>Resver30=>Rutin30”.

And the inhibition at 30 µM ([1]; Homo sapiens, 30 micromol/L, 1 micromol/L Ang II, 24 hours, read-out: inhibition of Ang II-induced gel contraction)?
Its inhibition at 30 µM is 120%.

What about the “GA, % vs 100% control” value ([2]; Apr. 2, 2003) of the same molecule?
Its value is 133%.

Which “effect on ATII-induced gel” value ([1]; Mar. 20, 2003) does the source give for `[Mg+2]` [Mg] here?
The value was “no effects”.
